In one assay the target is T1, ACOX1 (Homo sapiens, UniProt Q15067).
T1 construct: endogenous in cells
T1 sequence (Q15067 1-660): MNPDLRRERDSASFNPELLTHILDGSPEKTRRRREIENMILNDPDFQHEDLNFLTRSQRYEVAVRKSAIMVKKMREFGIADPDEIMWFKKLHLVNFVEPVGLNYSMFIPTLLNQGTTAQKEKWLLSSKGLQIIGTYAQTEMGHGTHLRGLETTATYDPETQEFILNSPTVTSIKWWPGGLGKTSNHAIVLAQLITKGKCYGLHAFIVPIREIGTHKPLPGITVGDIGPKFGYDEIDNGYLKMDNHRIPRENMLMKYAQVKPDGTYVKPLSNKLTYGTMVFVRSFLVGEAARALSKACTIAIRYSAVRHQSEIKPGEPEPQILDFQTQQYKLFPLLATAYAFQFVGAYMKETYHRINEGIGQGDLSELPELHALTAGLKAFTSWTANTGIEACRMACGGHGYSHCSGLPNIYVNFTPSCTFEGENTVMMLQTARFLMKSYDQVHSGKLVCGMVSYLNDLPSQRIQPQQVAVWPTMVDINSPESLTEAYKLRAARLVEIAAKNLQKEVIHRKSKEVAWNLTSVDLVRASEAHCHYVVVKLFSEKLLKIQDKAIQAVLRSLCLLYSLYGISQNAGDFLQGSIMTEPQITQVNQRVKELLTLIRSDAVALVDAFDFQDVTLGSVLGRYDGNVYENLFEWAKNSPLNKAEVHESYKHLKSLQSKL
Nature of the assay: Kinobeads two-dose competition binding: ACOX1.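 Further: competition of compounds with immobilized broad-spectrum kinase inhibitor beads in cell lysate at 100 and 1,000 nM, 45 min at 4 °C, bead-bound protein quantified by label-free MS versus DMSO.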 Particulars: sheet CATDS matrix 2; Gene Name ACOX1.

Another assay concerns the target T2, AAK1 (Homo sapiens, UniProt Q2M2I8).
T2 construct: to maximize the representation of endogenous proteins; endogenous in cells
Nature of the assay: Kinobeads two-dose competition binding: AAK1.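 On all read-outs here: kinobeads competition pulldown from cell lysate, compound preincubated 45 min at 4 °C, bead-bound protein measured by label-free mass spectrometry against DMSO vehicle control.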 To be noted: for CATDS: sheet CATDS matrix 2, Gene Name AAK1.

In another assay the target is ABL1 (Homo sapiens, UniProt P00519). As to the kind of experiment: Kinobeads two-dose competition binding: ABL1. To be noted: sheet CATDS matrix 2; Gene Name ABL1.
ABL1, sequence (P00519 28-1130 limits assumed): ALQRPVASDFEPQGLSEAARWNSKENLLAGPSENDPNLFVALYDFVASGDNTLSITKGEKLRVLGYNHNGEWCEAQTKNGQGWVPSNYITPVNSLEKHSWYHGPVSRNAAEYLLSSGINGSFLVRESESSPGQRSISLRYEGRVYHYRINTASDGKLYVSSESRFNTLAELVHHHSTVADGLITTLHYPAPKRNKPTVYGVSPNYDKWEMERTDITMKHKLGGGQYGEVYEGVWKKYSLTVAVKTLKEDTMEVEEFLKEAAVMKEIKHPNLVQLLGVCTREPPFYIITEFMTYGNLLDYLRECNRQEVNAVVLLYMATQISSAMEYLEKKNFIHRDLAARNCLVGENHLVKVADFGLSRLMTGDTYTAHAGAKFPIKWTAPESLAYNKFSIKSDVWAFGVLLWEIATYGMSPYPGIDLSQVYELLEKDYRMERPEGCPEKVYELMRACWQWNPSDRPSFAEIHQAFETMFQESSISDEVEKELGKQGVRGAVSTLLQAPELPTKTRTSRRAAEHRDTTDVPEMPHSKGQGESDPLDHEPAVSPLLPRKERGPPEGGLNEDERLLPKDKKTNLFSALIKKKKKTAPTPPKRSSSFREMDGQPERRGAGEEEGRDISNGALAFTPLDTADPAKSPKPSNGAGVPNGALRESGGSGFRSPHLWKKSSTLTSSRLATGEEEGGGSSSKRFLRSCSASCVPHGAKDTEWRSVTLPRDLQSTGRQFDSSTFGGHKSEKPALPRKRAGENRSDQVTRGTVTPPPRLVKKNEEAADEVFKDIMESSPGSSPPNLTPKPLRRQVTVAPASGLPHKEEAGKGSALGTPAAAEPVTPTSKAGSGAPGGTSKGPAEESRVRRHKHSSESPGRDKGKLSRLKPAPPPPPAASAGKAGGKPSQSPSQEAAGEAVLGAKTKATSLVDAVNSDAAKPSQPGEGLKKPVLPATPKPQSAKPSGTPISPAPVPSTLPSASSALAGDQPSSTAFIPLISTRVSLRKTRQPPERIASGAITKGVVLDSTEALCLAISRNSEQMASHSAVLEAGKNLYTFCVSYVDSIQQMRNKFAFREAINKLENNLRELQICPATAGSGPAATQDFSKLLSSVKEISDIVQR
Another assay deals with T3, ABL2 (Homo sapiens, UniProt P42684).
T3 construct: endogenous in cells
T3 sequence (P42684 whole entry): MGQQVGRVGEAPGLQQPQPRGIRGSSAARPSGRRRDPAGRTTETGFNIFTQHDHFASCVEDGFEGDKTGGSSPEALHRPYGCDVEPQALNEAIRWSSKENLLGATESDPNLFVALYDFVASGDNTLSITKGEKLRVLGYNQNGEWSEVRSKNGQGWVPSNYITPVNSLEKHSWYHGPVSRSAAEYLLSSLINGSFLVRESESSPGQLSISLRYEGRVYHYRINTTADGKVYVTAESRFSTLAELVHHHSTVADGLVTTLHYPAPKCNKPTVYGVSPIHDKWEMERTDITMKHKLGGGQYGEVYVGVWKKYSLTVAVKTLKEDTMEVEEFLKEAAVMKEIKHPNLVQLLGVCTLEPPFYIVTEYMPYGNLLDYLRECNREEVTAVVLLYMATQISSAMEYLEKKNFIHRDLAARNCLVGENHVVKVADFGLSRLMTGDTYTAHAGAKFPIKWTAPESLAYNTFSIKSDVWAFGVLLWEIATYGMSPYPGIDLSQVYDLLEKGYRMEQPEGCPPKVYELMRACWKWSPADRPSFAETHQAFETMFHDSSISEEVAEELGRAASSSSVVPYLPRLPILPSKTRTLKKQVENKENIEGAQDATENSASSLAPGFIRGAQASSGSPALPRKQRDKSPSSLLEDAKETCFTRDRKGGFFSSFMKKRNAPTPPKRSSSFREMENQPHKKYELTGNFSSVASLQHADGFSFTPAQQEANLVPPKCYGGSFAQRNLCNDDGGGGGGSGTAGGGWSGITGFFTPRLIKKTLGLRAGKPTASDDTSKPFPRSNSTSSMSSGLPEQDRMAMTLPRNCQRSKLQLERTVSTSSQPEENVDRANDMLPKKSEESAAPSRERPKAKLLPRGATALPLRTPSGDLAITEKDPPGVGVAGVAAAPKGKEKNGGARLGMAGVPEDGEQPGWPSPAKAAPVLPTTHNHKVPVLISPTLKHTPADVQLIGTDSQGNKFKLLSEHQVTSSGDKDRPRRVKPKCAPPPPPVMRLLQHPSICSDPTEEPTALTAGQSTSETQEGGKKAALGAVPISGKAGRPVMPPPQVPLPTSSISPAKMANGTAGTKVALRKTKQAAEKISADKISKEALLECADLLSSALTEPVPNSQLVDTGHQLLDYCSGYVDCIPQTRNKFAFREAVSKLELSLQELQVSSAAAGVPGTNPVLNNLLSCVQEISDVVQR
As to the kind of experiment: Kinobeads two-dose competition binding: ABL2. To be noted: sheet CATDS matrix 2; Gene Name ABL2.

For the next assay, the target named is T4, ACAD11 (Homo sapiens, UniProt Q709F0).
T4 construct: endogenous in cells
T4 sequence (Q709F0 1-780): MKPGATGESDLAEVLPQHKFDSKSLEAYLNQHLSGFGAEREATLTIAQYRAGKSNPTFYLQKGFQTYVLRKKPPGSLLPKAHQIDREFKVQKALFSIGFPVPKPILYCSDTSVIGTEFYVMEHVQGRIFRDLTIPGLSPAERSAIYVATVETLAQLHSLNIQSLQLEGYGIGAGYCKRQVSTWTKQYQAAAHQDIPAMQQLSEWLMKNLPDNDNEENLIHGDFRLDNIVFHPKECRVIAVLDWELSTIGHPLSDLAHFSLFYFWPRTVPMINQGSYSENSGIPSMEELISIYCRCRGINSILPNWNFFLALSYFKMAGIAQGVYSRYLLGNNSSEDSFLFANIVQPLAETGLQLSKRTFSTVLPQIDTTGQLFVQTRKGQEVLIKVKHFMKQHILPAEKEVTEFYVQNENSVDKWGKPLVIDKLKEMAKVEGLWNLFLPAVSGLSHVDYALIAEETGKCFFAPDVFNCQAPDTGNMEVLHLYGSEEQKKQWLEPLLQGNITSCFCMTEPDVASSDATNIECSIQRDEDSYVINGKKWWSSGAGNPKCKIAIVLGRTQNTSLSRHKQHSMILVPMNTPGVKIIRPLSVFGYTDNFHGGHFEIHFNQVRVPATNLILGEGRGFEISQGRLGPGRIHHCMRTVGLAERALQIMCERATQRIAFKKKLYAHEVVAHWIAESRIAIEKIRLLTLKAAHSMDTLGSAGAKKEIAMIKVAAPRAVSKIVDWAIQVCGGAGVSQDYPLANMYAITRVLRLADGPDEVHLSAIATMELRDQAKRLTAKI
Nature of the assay: Kinobeads two-dose competition binding: ACAD11. Particulars: sheet CATDS matrix 2; Gene Name ACAD11.

T2 sequence (Q2M2I8 whole entry): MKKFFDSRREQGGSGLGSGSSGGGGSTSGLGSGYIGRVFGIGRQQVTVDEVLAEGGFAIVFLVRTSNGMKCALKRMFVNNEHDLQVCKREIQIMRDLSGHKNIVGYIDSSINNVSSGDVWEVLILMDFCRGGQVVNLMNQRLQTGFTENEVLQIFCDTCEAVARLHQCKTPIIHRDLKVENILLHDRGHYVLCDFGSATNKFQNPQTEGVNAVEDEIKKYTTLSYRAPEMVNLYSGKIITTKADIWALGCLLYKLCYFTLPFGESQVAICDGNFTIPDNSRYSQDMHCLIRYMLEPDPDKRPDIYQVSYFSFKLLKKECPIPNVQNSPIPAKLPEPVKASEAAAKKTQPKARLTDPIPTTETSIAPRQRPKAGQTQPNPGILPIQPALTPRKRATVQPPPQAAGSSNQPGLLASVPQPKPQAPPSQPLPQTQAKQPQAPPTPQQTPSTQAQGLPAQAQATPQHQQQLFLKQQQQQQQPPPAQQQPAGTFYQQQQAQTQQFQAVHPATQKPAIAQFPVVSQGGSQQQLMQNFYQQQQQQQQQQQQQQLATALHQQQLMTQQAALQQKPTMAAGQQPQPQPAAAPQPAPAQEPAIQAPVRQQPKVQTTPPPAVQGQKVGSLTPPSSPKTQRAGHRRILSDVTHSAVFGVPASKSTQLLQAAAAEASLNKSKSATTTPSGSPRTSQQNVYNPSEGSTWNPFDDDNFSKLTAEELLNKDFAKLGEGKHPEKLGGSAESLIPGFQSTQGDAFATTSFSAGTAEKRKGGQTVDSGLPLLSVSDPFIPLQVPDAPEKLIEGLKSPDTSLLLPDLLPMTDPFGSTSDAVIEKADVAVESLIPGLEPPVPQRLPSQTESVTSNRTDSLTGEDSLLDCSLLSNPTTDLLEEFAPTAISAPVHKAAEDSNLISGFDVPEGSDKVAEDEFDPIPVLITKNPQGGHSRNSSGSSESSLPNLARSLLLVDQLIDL

As for `Cc1nn2c(=O)cc(N3CCOCC3)nc2n1Cc1cccc(Cl)c1Cl` [GSK2342769A], the CATDS on ACOX1, on AAK1, on ABL1, at ABL2 and at ACAD11 was 0 throughout.
For the compound `COc1cc(Nc2nccc(N3CCC(NC(=O)c4cccc(C#N)c4)C3)n2)cc(OC)c1OC` (stereo not shown) [GSK1379751A], the CATDS on ACOX1 came out at 0; on AAK1, 0.2095; at ABL1, 0; at ABL2, 0; at ACAD11, 0. Also, the potency estimated from few doses on AAK1 (sheet "Kinobeads Drugmatrix - all", unit inferred, same values below 1000 recur in sheet "nanomolar", read-out: Kinobeads Drugmatrix - all: apparent Kd, AAK1) was 786 nM.
Turning to `Fc1ccc(-c2nc3n(c2-c2ccncc2)CCS3)cc1` [GI98581X], the CATDS on ACOX1, on AAK1, on ABL1, at ABL2 and at ACAD11 was 0 in each case.
As for `O=c1cc(N2CCOCC2)nc2n(Cc3cccc(Cl)c3Cl)ccn12` [GSK2286295A], the CATDS on ACOX1, on AAK1, at ABL1, on ABL2 and on ACAD11 was 0 each time.
As for `O=C(Nc1cccc(-c2nn3ncccc3c2-c2ccnc(Nc3ccccc3)n2)c1)c1c(F)cccc1F` [GSK198271A], the CATDS at ACOX1, at AAK1, at ABL1, on ABL2 and on ACAD11 was 0 in each case.
In the case of `COc1cc(N2CCN(C(C)C)CC2)ccc1Nc1nc(Nc2ccc(F)cc2C(=O)NC[C@@H](O)CO)c2cc[nH]c2n1` [GSK1392956A], the CATDS on ACOX1, on AAK1, on ABL1, at ABL2 and on ACAD11 was 0 each time.
Regarding `CC(C)C(=O)N[C@@H]1CCN(C(=O)Nc2nc3c(s2)-c2nc(-c4ccccc4Cl)ncc2CC3)C1` [BI00047804], the CATDS on ACOX1, on AAK1, at ABL1, on ABL2 and on ACAD11 was 0 in each case.
As for `Cc1cnc(N)c(/C=C/c2cncc(C(=O)NCCc3ccc(Cl)cc3Cl)c2)c1` [GSK190937A], the CATDS at ACOX1, at AAK1, on ABL1, on ABL2 and on ACAD11 was 0 each time.
`NC(=O)c1sc(-n2cnc3ccccc32)cc1OCc1ccccc1Br` [GSK1023156A]: the CATDS on ACOX1, at AAK1, on ABL1, on ABL2 and at ACAD11 was 0 each time.
For the compound `CC(C)(C)OC(=O)NC1CCCN(c2cc(-c3ccc4c(N)n[nH]c4c3)nc(N)n2)C1` (stereo not shown) [GSK2286096A], the CATDS at ACOX1, on AAK1, at ABL1, at ABL2 and on ACAD11 was 0 each time.
With `CNC(=O)c1ncccc1Nc1nc(Nc2cc3c(cc2OC)CCCN3C(=O)CN(C)C)nc2[nH]ccc12` [GSK2220400A], the CATDS on ACOX1, on AAK1, at ABL1, on ABL2 and on ACAD11 was 0 in each case.
With `COc1ccc(Nc2nccc(N3CCC(NC(=O)c4cc5ccccc5s4)C3)n2)cc1` (stereo not shown) [GSK1379738A], the CATDS on ACOX1, on AAK1, at ABL1, on ABL2 and at ACAD11 was 0 each time.
As for `O=C(O[C@H]1CN[C@H](C#Cc2cc3ncnc(Nc4ccc5c(cnn5Cc5ccccc5)c4)c3s2)C1)N1CCOCC1` [GSK200398A_KCGS], the CATDS on ACOX1, at AAK1, at ABL1, at ABL2 and at ACAD11 was 0 each time.
As to `COc1cc(Nc2nccc(N3CCC(NS(=O)(=O)c4ccc(NC(C)=O)cc4)CC3)n2)cc(OC)c1OC` [GSK1379825A], the CATDS on ACOX1, at AAK1, on ABL1, on ABL2 and at ACAD11 was 0 each time.
As to `Cc1cn2c(=O)cc(N3CCOCC3)nc2n1Cc1cccc(Cl)c1Cl` [GSK2334006A], the CATDS at ACOX1, on AAK1, on ABL1, at ABL2 and on ACAD11 was 0 each time.
Take `CC(C)c1cc(-c2ccc3c(N)n[nH]c3c2)nc(N)n1` [GSK2250882A]: the CATDS turned out to be 0 on ACOX1; 0.3935 at AAK1; 0 on ABL1; 0 at ABL2; 0 on ACAD11.
As to `COc1cc2c(cc1OC)C(=C(Nc1ccccc1)c1cccc(CN)c1)C(=O)N2` [BIBF0846CL], the CATDS on ACOX1, at AAK1, at ABL1, at ABL2 and on ACAD11 was 0 in each case.
Take `COc1cc2ncn(-c3cc(OCC4CCCO4)c(C(N)=O)s3)c2cc1OC` (stereo not shown) [GSK204607A]: the CATDS on ACOX1, at AAK1, at ABL1, at ABL2 and on ACAD11 was 0 each time.
Take `Cn1cc(C2=C(c3cn(C4CCN(Cc5ccccn5)CC4)c4ccccc34)C(=O)NC2=O)c2ccccc21` [Enzastaurin, reference compound]: the CATDS on ACOX1, at AAK1, on ABL1, at ABL2 and at ACAD11 was 0 in each case.
Turning to `CNc1nc(-c2ccc3c(N)n[nH]c3c2)cc(N2C[C@@H](C(=O)Nc3ccccc3)CC[C@H]2C)n1` [GSK2298859A], the CATDS on ACOX1, on AAK1, on ABL1, on ABL2 and on ACAD11 was 0 throughout.
As for `O=c1cc(N2CCOCC2)nc2n(Cc3cccc4ccccc34)ccn12` [GSK2333389A], the CATDS at ACOX1, at AAK1, on ABL1, on ABL2 and on ACAD11 was 0 each time.
As for `COc1cc2c(cc1Nc1nc(Nc3ccsc3C(N)=O)c3cc[nH]c3n1)N(C(=O)CN(C)C)CCC2(C)C` [GSK2163632A], the CATDS at ACOX1, at AAK1, on ABL1, at ABL2 and on ACAD11 was 0 each time.
As for `O=C(Nc1c(F)cccc1F)c1cc(C(=O)c2ccccc2F)c[nH]1` [GSK1326180A], the CATDS at ACOX1, on AAK1, at ABL1, at ABL2 and at ACAD11 was 0 in each case.
As to `O=c1cc(N2CCOCC2)nc2n(Cc3ccccc3F)ccn12` [GSK2297428A], the CATDS on ACOX1, at AAK1, at ABL1, on ABL2 and on ACAD11 was 0 each time.

The record behind these values is publication PMC11062922 (Nature Chemical Biology, 2023).
